Experiment [1] relates to MPTP-treated C57 black mice. The experiment can be described thus: Locomotor activity of MPTP-treated mice (VersaMax). The class given is in vivo. As to conditions: rottlerin 20 mg/kg + MPTP 30 mg/kg 5 days. From the text:
Behavioral data were collected using VersaMax Animal Activity Monitors (AccuScan Model RXYZCM-16, Columbus, Ohio). Each chamber was 40×40×30.5 cm^3, made of clear Plexiglas and covered with a Plexiglas lid with air-holes. Infrared monitoring sensors were located every 2.54 cm along the perimeter (16 infrared beams along each side) and 2.5 cm above the floor. Two additional sets of 16 sensors were located 8.0 cm above the floor on opposite sides. Data were collected and analyzed by a VersaMax Analyzer (AccuScan Model CDA-8, Columbus, Ohio) which in turn sent information to an IBM computer where it was stored for future analyses. Locomotor activity was presented as horizontal movement and vertical movement. All data are expressed as percent of the vehicle-treated control group (mean 6 SEM) and were obtained 1 day after MPTP or vehicle treatment in a 20-min test session.

In experiment [2] the test system is tyrosine hydroxylase (TH). The experiment can be described thus: TH activity (DOPA levels after NSD-1015) in PC12 cells. The class given is cell-based. As to conditions: 2 mM NSD-1015. How it is done: PC12 cells, differentiated N27 dopaminergic cells and primary mesencephalic neurons were exposed to 1-10 μM rottlerin for the duration of the experiment. DMSO (0.01%) was used as vehicle control. PKCδ-DN- and Lac Z-expressing N27 cells were only treated with 0.01% DMSO. […] Untreated or vehicle treated cells were used as control samples.

For experiment [3], the system named is tyrosine hydroxylase (TH). The experiment can be described thus: TH activity (DOPA levels after NSD-1015) in N27 cells. The class given is cell-based, rat. As to conditions: 2 mM NSD-1015, rottlerin 3 hr vs DMSO, PKCδ-DN vs LacZ. How it is done: Plasmid pPKCδ^K376R-V5 encodes the loss of function PKCδ-V5 epitope tagged mutant protein; K376R refers to the mutation of the lysine residue at position 376 to arginine in the catalytic site resulting in inactivation of the kinase. Plasmid pLacZ-V5 encodes the β-galactosidase protein alone with a V5-epitope and is used as a vector control. N27 cells stably expressing PKCδ^K376R-V5 (herein referred to as PKCδ-DN cells) and LacZ alone-expressing cells (LacZ cells) were cultured as described previously (Kitazawa et al., 2005). PKCδ-DN or LacZ expressing N27 cells were identified by immunostaining of the C-terminal V5 epitope on expressed proteins and were differentiated with cAMP analogs (e.g. dibutyral cAMP) prior to experiments. PKCδ-DN and LacZ were also transiently expressed in mouse primary mesencephalic neurons using an AMAXA® Nucleofector™ kit (AMAXA GmbH, Germany). As described above, primary mesencephalic neurons were prepared from the midbrain of 16-18-day-old mice embryos. After digestion with trypsin-EDTA-HBSS, the primary neurons were homogenously resuspended with transfection buffer provided with the kit to a final concentration of 4-5×10^6 neurons/100 μl and mixed with 1 μg plasmid DNA encoding either PKCδ-DN-V5 or LacZ-V5. […] Transfection efficiency was >75% as determined by immunostaining of V5-expression. […]

Experiment [4] has as its system tyrosine hydroxylase (TH). The experiment can be described thus: TH-ser40 phosphorylation in primary mesencephalic neurons (immunofluorescence). It counts as cell-based, mouse. To be noted: PKCδ (+/+) primary neuronal cultures, 3 μM rottlerin for 3 hr. The procedure: PC12 and N27 cells were cultured as described earlier (Anantharam et al., 2002; Kaul et al., 2003). Briefly, cells were grown in RPMI 1640 medium containing 10% fetal bovine serum, 2 mM L-glutamine, 50 units of penicillin, and 50 μg/ml streptomycin. Cells were maintained in a humidified atmosphere of 5% CO2 at 37° C. N27 cells were differentiated with 2 mM dibutyryl cAMP for 3-5 days and then used for experiments described below. Primary mesencephalic neuronal cultures were prepared from the ventral mesencephalon of gestational 16-18-day-old mice embryos as described previously (Yang et al., 2004). Mesencephalic tissues were dissected and maintained in ice-cold Ca^2+-free HESS and then dissociated in HBSS solution containing trypsin-EDTA (0.25%) for 20 min at 37° C. The dissociated cells were then plated at equal density (0.5×10^6 cells) in 30-mm-diameter tissue culture wells precoated with poly-L-lysine (1 mg/ml). […]
Plasmid pPKCδ^K376R-V5 encodes the loss of function PKCδ-V5 epitope tagged mutant protein; K376R refers to the mutation of the lysine residue at position 376 to arginine in the catalytic site resulting in inactivation of the kinase. […] Transfection efficiency was >75% as determined by immunostaining of V5-expression. […]

Another experiment concerns PKCα or PKCβ. As to conditions: cited from earlier work.
For another experiment, the target named is CAM kinase III (Homo sapiens, UniProt O00418). As to conditions: cited from earlier work.
Chain of CAM kinase III (O00418 whole entry): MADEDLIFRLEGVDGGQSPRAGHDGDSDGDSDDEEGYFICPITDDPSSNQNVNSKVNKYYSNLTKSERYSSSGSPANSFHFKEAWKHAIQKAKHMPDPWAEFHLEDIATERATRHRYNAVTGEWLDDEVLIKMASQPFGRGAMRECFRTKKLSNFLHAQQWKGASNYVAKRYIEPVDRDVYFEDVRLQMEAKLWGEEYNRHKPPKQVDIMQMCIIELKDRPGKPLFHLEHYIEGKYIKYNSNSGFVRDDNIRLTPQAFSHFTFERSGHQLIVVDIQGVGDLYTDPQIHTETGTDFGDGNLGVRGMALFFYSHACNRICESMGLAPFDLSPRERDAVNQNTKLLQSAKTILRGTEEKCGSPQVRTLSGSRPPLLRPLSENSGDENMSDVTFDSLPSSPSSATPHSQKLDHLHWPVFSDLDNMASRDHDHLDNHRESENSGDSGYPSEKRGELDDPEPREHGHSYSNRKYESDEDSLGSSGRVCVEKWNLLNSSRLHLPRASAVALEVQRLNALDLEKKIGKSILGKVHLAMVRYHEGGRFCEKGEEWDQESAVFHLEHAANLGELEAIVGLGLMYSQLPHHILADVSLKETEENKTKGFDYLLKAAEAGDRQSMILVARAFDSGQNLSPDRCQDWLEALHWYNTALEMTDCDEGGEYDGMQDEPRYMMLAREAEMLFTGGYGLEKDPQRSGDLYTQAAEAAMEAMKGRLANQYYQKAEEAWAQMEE
For a further experiment, the system named is casein kinase II. To be noted: cited from earlier work.
The next experiment deals with Akt. To be noted: cited from earlier work.
For the next experiment, the system named is 3T3 cells. As to conditions: zinc deficient medium; cited from earlier work.

On to `CC(=O)c1c(O)c(C)c(O)c(Cc2c(O)c3c(c(C(=O)/C=C/c4ccccc4)c2O)OC(C)(C)C=C3)c1O` [rottlerin], for which the “horizontal movement, percent of vehicle-treated control” value in experiment [1] was 76.93%. For the same compound, the “vertical movement, percent of vehicle-treated control” value in experiment [1] was determined as 79%. For the same compound, the TH activity turned out to be 2091.09±80.17 pg DOPA/10^6 cells/hr in experiment [2] (1 μM rottlerin 3 hr), 3045±75.31 pg DOPA/10^6 cells/hr in experiment [2] (3 μM rottlerin 3 hr) and 3025±266.7 pg DOPA/10^6 cells/hr in [3]. The “TH-ser40 fluorescent intensity, increase” value in experiment [4] was 4 fold. Also, the “fold more potent on PKCδ than on PKCα or PKCβ” value in the experiment on PKCα or PKCβ is given as 5- to 10 fold. Moreover, the inhibiting concentration on CAM kinase III was 3 to 6 µM. Also, the inhibition result in the experiment on casein kinase II is recorded as “weak inhibitor”. In addition, the “TPA-induced dephosphorylation of Akt” value in the experiment on Akt is “inhibited”. Besides, the cell number entry in the experiment with 3T3 cells is “restored”. Further, the “proteolysis of PKC-delta, activated caspase-3” value in the experiment with 3T3 cells was “reduced or eliminated”.

Values taken from US8653023B1, “Dual beneficial effect of dopamine enhancing and neuroprotective actions of PKC delta inhibitors for treatment of Parkinson's disease” (Iowa State University Research Foundation, Inc., priority 2006, dated 2014).
